Data on two compounds can be found in BindingDB's records for doi:10.1021/jm051273d (University of North Carolina At Chapel Hill, 2006).

Common to all, as to test: PDE4 Activity Assay
Settings in all cases: pH 7.5; 22 °C

The target of experiment [1] is cAMP-specific 3',5'-cyclic phosphodiesterase 4A (Homo sapiens, UniProt P27815). On the procedure: (§1) PDE4 catalytic activity was monitored by measuring the hydrolysis of [3H]-cAMP to [3H]-AMP using PDE-SPA kit (Amersham International). [3H]-AMP was captured by the SPA beads, and quantified on a Wallac-Microbeta scintillation counter. A linear reaction progress curve (30 min) and a linear enzyme concentration response (0 to 500 pM) were observed. The IC50 value was calculated from an 11-point dose-response curve performed in duplicate using a 4-parameter least-squares nonlinear regression fit.

The target of experiment [2] is cAMP-specific 3',5'-cyclic phosphodiesterase 4B (Homo sapiens, UniProt Q07343). On the procedure: as §1
Experiment [3] has as its target cAMP-specific 3',5'-cyclic phosphodiesterase 4C (Homo sapiens, UniProt Q08493). On the procedure:
as §1

For experiment [4], the target named is cAMP-specific 3',5'-cyclic phosphodiesterase 4D (Homo sapiens, UniProt Q08499). The protocol:
as §1

In general, IC50 refers to the concentration needed to halve the response being measured. Low values mean higher potency, high ones lower potency.

Chain of cAMP-specific 3',5'-cyclic phosphodiesterase 4A (P27815 whole entry): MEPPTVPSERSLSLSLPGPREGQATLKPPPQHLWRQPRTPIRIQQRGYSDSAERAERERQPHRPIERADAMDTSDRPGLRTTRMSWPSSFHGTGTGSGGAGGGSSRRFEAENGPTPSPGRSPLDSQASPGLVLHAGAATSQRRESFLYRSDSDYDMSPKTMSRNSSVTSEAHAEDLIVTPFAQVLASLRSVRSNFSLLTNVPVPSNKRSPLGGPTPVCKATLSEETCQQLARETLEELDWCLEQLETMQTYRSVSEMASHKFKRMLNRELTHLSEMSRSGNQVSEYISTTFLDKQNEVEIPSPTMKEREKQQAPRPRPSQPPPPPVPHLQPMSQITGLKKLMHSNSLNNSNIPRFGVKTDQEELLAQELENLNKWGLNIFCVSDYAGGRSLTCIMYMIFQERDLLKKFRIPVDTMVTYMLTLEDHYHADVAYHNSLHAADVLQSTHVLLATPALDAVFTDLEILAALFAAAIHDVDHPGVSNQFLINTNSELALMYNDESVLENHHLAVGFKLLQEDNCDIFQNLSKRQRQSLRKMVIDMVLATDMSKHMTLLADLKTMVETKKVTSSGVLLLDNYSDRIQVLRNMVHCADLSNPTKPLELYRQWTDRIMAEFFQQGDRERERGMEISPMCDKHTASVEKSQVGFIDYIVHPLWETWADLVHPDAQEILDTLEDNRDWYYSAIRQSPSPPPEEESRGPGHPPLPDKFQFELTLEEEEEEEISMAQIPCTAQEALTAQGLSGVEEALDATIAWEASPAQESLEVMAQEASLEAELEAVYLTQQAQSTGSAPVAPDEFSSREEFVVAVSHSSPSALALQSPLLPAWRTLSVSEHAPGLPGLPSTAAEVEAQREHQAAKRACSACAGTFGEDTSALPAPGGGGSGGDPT
Chain of cAMP-specific 3',5'-cyclic phosphodiesterase 4C (Q08493 whole entry): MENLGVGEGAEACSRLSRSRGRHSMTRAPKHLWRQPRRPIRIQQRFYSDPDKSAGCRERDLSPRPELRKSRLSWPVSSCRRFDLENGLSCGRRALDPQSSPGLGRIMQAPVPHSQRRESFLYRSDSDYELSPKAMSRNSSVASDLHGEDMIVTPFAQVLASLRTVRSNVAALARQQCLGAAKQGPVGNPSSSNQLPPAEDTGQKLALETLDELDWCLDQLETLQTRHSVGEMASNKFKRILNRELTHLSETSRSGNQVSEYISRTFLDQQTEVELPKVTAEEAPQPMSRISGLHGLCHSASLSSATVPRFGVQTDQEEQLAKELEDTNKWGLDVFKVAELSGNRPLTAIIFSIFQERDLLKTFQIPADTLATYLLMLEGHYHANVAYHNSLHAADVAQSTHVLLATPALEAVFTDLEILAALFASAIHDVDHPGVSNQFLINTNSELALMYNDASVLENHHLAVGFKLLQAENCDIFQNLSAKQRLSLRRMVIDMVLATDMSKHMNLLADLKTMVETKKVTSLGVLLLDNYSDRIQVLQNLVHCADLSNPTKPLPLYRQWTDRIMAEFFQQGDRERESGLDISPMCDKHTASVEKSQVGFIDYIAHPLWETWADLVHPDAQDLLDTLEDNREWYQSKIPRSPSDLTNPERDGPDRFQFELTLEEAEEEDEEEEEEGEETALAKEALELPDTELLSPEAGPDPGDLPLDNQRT
Chain of cAMP-specific 3',5'-cyclic phosphodiesterase 4B (Q07343 whole entry): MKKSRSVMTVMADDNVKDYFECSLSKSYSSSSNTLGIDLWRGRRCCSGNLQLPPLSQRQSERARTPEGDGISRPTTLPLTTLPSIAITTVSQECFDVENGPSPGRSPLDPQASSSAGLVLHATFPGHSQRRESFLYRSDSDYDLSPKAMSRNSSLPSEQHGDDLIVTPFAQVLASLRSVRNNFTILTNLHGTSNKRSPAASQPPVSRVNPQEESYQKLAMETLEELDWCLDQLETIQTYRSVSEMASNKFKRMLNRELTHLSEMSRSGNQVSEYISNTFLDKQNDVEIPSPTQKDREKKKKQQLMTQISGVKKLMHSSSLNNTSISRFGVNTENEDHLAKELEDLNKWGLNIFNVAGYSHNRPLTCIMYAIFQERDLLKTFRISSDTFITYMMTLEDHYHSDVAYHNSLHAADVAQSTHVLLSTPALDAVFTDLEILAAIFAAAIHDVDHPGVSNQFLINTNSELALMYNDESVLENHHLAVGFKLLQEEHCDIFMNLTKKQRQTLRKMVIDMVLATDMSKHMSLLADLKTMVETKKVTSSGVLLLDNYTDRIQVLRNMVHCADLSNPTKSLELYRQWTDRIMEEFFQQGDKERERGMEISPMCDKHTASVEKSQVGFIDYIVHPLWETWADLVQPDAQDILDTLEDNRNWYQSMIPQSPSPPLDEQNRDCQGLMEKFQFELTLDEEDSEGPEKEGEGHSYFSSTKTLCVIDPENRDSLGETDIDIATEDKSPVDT
Chain of cAMP-specific 3',5'-cyclic phosphodiesterase 4D (Q08499 whole entry): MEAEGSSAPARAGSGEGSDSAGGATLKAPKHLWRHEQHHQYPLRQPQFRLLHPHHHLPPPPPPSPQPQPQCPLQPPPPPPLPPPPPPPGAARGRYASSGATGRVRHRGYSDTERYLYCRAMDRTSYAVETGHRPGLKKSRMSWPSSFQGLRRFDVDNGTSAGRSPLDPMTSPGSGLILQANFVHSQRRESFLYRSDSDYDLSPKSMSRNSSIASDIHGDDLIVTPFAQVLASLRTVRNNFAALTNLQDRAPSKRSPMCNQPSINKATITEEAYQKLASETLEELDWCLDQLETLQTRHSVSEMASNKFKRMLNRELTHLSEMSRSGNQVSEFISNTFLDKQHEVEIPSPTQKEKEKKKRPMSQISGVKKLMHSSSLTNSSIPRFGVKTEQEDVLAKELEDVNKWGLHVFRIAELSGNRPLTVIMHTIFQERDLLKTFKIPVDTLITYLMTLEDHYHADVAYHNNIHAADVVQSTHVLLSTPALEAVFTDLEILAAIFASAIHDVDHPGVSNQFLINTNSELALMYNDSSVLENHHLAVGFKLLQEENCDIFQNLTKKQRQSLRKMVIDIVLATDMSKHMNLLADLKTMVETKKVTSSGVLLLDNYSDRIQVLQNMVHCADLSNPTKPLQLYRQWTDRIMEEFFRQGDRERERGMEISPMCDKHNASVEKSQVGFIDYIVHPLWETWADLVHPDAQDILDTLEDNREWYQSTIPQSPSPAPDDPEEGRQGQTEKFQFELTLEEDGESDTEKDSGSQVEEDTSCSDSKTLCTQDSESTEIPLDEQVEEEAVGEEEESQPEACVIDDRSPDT

Take `[O-][n+]1cccc(C[C@@H](c2ccc(OC(F)F)c(OC3CC3)c2)c2ncc(C(O)(C(F)(F)F)C(F)(F)F)s2)c1` [3-[(2S)-2-[3-cyclopropoxy-4-(difluoromethoxy)phenyl]-2-[5-(1,1,1,3,3,3-hexafluoro-2-hydroxypropan-2-yl)-1,3-thiazol-2-yl]ethyl]-1-oxidopyridin-1-ium]: the half-inhibitory concentration (IC50) was determined as 0.4 nM in experiment [1], 0.4 nM in experiment [2], 1 nM in experiment [3] and 0.4 nM in experiment [4].

Consider `[O-][n+]1cccc(C[C@H](c2ccc(OC(F)F)c(OC3CC3)c2)c2ncc(C(O)(C(F)(F)F)C(F)(F)F)s2)c1` [(R)-(-)-3-{2-[(3-cyclopropyloxy-4-difluromethoxy)phenyl]-2-[5-(2-(1-hydroxy-1-trifluoromethyl-2,2,2-trifluoro)ethyl)thiazolyl]ethyl}pyridine N-Oxide], for which the IC50 in experiment [1] worked out at 56 nM; in experiment [2] it was 40 nM; in experiment [3], 135 nM.
